Data: patent publication US9156796B2, “Benzoimidazole-carboxylic acid amide derivatives as APJ receptor modulators” (SANOFI, priority 2013, dated 2015)
Like-named read-outs stand apart in the source and are kept apart here.

Molecular target: T1, human apelin receptor (Homo sapiens, UniProt P35414)
T1 construct: expressed in transfected cells
T1 sequence (P35414 1-380): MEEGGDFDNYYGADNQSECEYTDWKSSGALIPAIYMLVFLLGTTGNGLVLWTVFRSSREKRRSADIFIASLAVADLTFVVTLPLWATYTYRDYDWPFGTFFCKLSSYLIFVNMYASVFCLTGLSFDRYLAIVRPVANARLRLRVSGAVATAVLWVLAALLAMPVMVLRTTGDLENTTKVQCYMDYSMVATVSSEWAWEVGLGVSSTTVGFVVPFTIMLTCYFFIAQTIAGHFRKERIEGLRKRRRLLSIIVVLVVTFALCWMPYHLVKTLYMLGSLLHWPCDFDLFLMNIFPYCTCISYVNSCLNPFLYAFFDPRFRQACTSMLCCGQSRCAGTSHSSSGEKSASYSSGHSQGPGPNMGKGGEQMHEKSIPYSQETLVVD
Assay: Determination of agonism on the human apelin receptor by a calcium fluorescence assay (FLIPR)
Format: cell-based
Settings: HEK293 cells stably transfected with human apelin receptor and Giaq protein, Fluo-4 calcium fluorescence
Summary of the method: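 Agonist EC50s come from peak intracellular calcium transients recorded by FLIPR Tetra, scaled to the 1 μM apelin-13 maximum per plate. Test system: HEK293 stably transfected with human apelin receptor plus Giaq, Fluo-4-loaded (4 μM, 1 h, 37 °C, pH 7.4 buffer with probenecid); ≥7 concentrations, triplicates.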

EC50 (read-out: EC50 (APJ agonism)) [µM] | SMILES | EC50 (EC50 (APJ agonism)) [µM]
0.27 | CCC(CC)n1c(Cc2ccoc2)nc2cc(C(=O)N[C@H](CC(=O)O)CC(C)C)ccc21 [Example 154, (S)-3-{[1-(1-Ethyl-propyl)-2-furan-3-ylmethyl-1H-benzoimidazole-5-carbonyl]-amino}-5-methyl-hexanoic acid] | –
0.5 | CCCC(CC(=O)O)NC(=O)c1ccc2c(c1)nc(Cc1cccs1)n2C(CC)CC (stereo not shown) [Example 155, 3-{[1-(1-Ethyl-propyl)-2-thiophen-2-ylmethyl-1H-benzoimidazole-5-carbonyl]-amino}-hexanoic acid] | –
0.21 | CCC(CC)n1c(Cc2ccsc2)nc2cc(C(=O)N[C@H](CC(=O)O)CC(C)C)ccc21 [Example 156, (S)-3-{[1-(1-Ethyl-propyl)-2-thiophen-3-ylmethyl-1H-benzoimidazole-5-carbonyl]-amino}-5-methyl-hexanoic acid] | –
10 | CCC(CC)n1c(Cc2ccccc2)nc2cc(C(=O)N[C@H](CC(=O)O)CC(C)C)ccc21 [Example 157, (S)-3-{[2-Benzyl-1-(1-ethyl-propyl)-1H-benzoimidazole-5-carbonyl]-amino}-5-methyl-hexanoic acid] | –
0.515 | CCC(CC)n1c(CC2CCCC2)nc2cc(C(=O)N[C@H](CC(=O)O)CC(C)C)ccc21 [Example 158, (S)-3-{[2-Cyclopentylmethyl-1-(1-ethyl-propyl)-1H-benzoimidazole-5-carbonyl]-amino}-5-methyl-hexanoic acid] | –
15 | CCC(C)Cn1c(CC2CCCC2)nc2cc(C(=O)N[C@H](CC(=O)O)CC(C)C)ccc21 (stereo partly drawn) [Example 159, (S)-3-{[2-Cyclopentylmethyl-1-(2-methyl-butyl)-1H-benzoimidazole-5-carbonyl]-amino}-5-methyl-hexanoic acid] | –
0.82 | CCC(CC)n1c(CC2CCCO2)nc2cc(C(=O)N[C@H](CC(=O)O)CC(C)C)ccc21 (stereo partly drawn) [Example 160, (S)-3-{[1-(1-Ethyl-propyl)-2-(tetrahydro-furan-2-ylmethyl)-1H-benzoimidazole-5-carbonyl]-amino}-5-methyl-hexanoic acid] | –
2.3 | CCC(CC)n1c(Cc2cccs2)nc2cc(C(=O)N[C@H](CC(=O)O)C(C)C)ccc21 [Example 161, (R)-3-{[1-(1-Ethyl-propyl)-2-thiophen-2-ylmethyl-1H-benzoimidazole-5-carbonyl]-amino}-4-methyl-pentanoic acid] | –
1.1 | CCC(CC)n1c(Cc2cccs2)nc2cc(C(=O)N[C@H](CCC(=O)O)C(C)C)ccc21 [Example 162, (R)-4-{[1-(1-Ethyl-propyl)-2-thiophen-2-ylmethyl-1H-benzoimidazole-5-carbonyl]-amino}-5-methyl-hexanoic acid] | –
0.051 | CCC(CC)n1c(Cc2cccs2)nc2cc(C(=O)N[C@H](CCC(=O)O)CC(C)C)ccc21 [Example 163, (R)-4-{[1-(1-Ethyl-propyl)-2-thiophen-2-ylmethyl-1H-benzoimidazole-5-carbonyl]-amino}-6-methyl-heptanoic acid] | –
6.35 | CC(C)C[C@H](NC(=O)c1ccc2c(c1)nc(Cc1cccs1)n2C(C(C)C)C(C)C)C(=O)O [Example 164, (S)-2-{[1-(1-Isopropyl-2-methyl-propyl)-2-thiophen-2-ylmethyl-1H-benzoimidazole-5-carbonyl]-amino}-4-methyl-pentanoic acid] | –
1.01 | CC(C)C[C@H](NC(=O)c1ccc2c(c1)nc(Cc1cccs1)n2-c1ccccc1Cl)C(=O)O [Example 165, (S)-2-{[1-(2-Chloro-phenyl)-2-thiophen-2-ylmethyl-1H-benzoimidazole-5-carbonyl]-amino}-4-methyl-pentanoic acid] | –
3.04 | CC(C)CC(C)n1c(Cc2cccs2)nc2cc(C(=O)N[C@@H](CC(C)C)C(=O)O)ccc21 (stereo partly drawn) [Example 166, (S)-2-{[1-(1,3-Dimethyl-butyl)-2-thiophen-2-ylmethyl-1H-benzoimidazole-5-carbonyl]-amino}-4-methyl-pentanoic acid] | –
7.55 | CCC(CC)n1c(CC2CCCC2)nc2cc(C(=O)N[C@H](CO)CC3CCCCC3)ccc21 [Example 167, 2-Cyclopentylmethyl-1-(1-ethyl-propyl)-1H-benzoimidazole-5-carboxylic acid ((S)-1-cyclohexylmethyl-2-hydroxy-ethyl)-amide] | –
4.53 | CC(C)C[C@H](NC(=O)c1ccc2c(c1)nc(Cc1cccs1)n2C1CCCCC1)C(N)=O [Example 168, 1-Cyclohexyl-2-thiophen-2-ylmethyl-1H-benzoimidazole-5-carboxylic acid ((S)-1-carbamoyl-3-methyl-butyl)-amide] | –
10.1 | CCC(CC)n1c(Cc2cccs2)nc2cc(C(=O)NC(C(N)=O)c3ccccc3)ccc21 (stereo not shown) [Example 170, 1-(1-Ethyl-propyl)-2-thiophen-2-ylmethyl-1H-benzoimidazole-5-carboxylic acid (carbamoyl-phenyl-methyl)-amide] | –
0.748 | CCC(CC)n1c(Cc2cccs2)nc2cc(C(=O)NC(CC(C)C)C(N)=O)ccc21 (stereo not shown) [Example 171, 1-(1-Ethyl-propyl)-2-thiophen-2-ylmethyl-1H-benzoimidazole-5-carboxylic acid (1-carbamoyl-3-methyl-butyl)-amide] | –
4.89 | CCC(CC)n1c(Cc2cscn2)nc2cc(C(=O)N[C@@H](CC(C)C)C(N)=O)ccc21 [Example 172, 1-(1-Ethyl-propyl)-2-thiazol-4-ylmethyl-1H-benzoimidazole-5-carboxylic acid ((S)-1-carbamoyl-3-methyl-butyl)-amide] | –
6.7 | CCC(CC)n1c(Cc2cccs2)nc2cc(C(=O)N[C@@H](CC3CCCCC3)C(N)=O)ccc21 [Example 173, 1-(1-Ethyl-propyl)-2-thiophen-2-ylmethyl-1H-benzoimidazole-5-carboxylic acid ((S)-1-carbamoyl-2-cyclohexyl-ethyl)-amide] | –
0.301 | CCC(CC)n1c(Cc2cccs2)nc2cc(C(=O)NC(CC(N)=O)CC(C)C)ccc21 (stereo not shown) [Example 174, 1-(1-Ethyl-propyl)-2-thiophen-2-ylmethyl-1H-benzoimidazole-5-carboxylic acid (1-carbamoylmethyl-3-methyl-butyl)-amide] | –
0.501 | CCC(CC)n1c(CC2CCCC2)nc2cc(C(=O)N[C@H](CO)CC(C)C)ccc21 [Example 175, 2-Cyclopentylmethyl-1-(1-ethyl-propyl)-1H-benzoimidazole-5-carboxylic acid ((S)-1-hydroxymethyl-3-methyl-butyl)-amide] | –
8.91 | CCC(CC)n1c(CC2CCCC2)nc2cc(C(=O)N[C@@H](CO)CC(C)C)ccc21 [Example 176, 2-Cyclopentylmethyl-1-(1-ethyl-propyl)-1H-benzoimidazole-5-carboxylic acid ((R)-1-hydroxymethyl-3-methyl-butyl)-amide] | –
2.42 | CCC(CC)n1c(Cc2cccs2)nc2cc(C(=O)N[C@H](CO)CC3CCCCC3)ccc21 [Example 177, 1-(1-Ethyl-propyl)-2-thiophen-2-ylmethyl-1H-benzoimidazole-5-carboxylic acid ((S)-1-cyclohexylmethyl-2-hydroxy-ethyl)-amide] | –
– | CCC(CC)n1c(CC2CCCC2)nc2cc(C(=O)N[C@H](CO)CCSC)ccc21 [Example 178, 2-Cyclopentylmethyl-1-(1-ethyl-propyl)-1H-benzoimidazole-5-carboxylic acid ((S)-1-hydroxymethyl-3-methylsulfanyl-propyl)-amide] | 17.4
25.2 | CCC(CC)n1c(CC2CCCC2)nc2cc(C(=O)NC3(CO)CCCC3)ccc21 [Example 179, 2-Cyclopentylmethyl-1-(1-ethyl-propyl)-1H-benzoimidazole-5-carboxylic acid (1-hydroxymethyl-cyclopentyl)-amide] | –
6.17 | CCC(CC)n1c(CC2CCCC2)nc2cc(C(=O)N[C@H](CO)[C@@H](C)CC)ccc21 [Example 180, 2-Cyclopentylmethyl-1-(1-ethyl-propyl)-1H-benzoimidazole-5-carboxylic acid ((1S,2S)-1-hydroxymethyl-2-methyl-butyl)-amide] | –
6.95 | CCCC(CO)NC(=O)c1ccc2c(c1)nc(CC1CCCC1)n2C(CC)CC (stereo not shown) [Example 181, 2-Cyclopentylmethyl-1-(1-ethyl-propyl)-1H-benzoimidazole-5-carboxylic acid (1-hydroxymethyl-butyl)-amide] | –
– | CCCCC(CO)NC(=O)c1ccc2c(c1)nc(CC1CCCC1)n2C(CC)CC (stereo not shown) [Example 182, 2-Cyclopentylmethyl-1-(1-ethyl-propyl)-1H-benzoimidazole-5-carboxylic acid (1-hydroxymethyl-pentyl)-amide] | 11
– | CCCC[C@H](CO)NC(=O)c1ccc2c(c1)nc(CC1CCCC1)n2C(CC)CC [Example 183, 2-Cyclopentylmethyl-1-(1-ethyl-propyl)-1H-benzoimidazole-5-carboxylic acid ((R)-1-hydroxymethyl-pentyl)-amide] | 26.3
– | CCCC[C@@H](CO)NC(=O)c1ccc2c(c1)nc(CC1CCCC1)n2C(CC)CC [Example 184, 2-Cyclopentylmethyl-1-(1-ethyl-propyl)-1H-benzoimidazole-5-carboxylic acid ((S)-1-hydroxymethyl-pentyl)-amide] | 2.9

SMILES | EC50 (read-out: EC50 (APJ agonism)) [µM] | EC50 (EC50 (APJ agonism)) [µM]
CCC(CC)n1c(CC2CCCC2)nc2cc(C(=O)NC(CC(C)C)C(N)=O)ccc21 (stereo not shown) [Example 169, 2-Cyclopentylmethyl-1-(1-ethyl-propyl)-1H-benzoimidazole-5-carboxylic acid (1-carbamoyl-3-methyl-butyl)-amide] | 6.65 | –
